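1) Cells in 96-well plates. 2) Compound, 48 h, 5 concentrations. 3) Linear interpolation between surrounding doses. 4) Unreached endpoint = highest concentration. GI50 marks 50% less growth. TGI marks complete inhibition of growth.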
Assays:
Test in all cases: NCI anticancer screen, dose series, 48 h
UO-31 renal = test system: UO-31 renal
UACC-257 melanoma = test system: UACC-257 melanoma
K-562 leukemia = test system: K-562 leukemia
ACHN renal = test system: ACHN renal
NCI-H522 lung = test system: NCI-H522 lung
SNB-19 CNS = test system: SNB-19 CNS
SK-OV-3 ovarian = test system: SK-OV-3 ovarian
HOP-92 NSCLC = test system: HOP-92 NSCLC
T-47D breast = test system: T-47D breast
PC-3 prostate = test system: PC-3 prostate

Work on `COC12C=C(C)C(CC1)CC2C(=O)O` (configuration not stated) yielded a TGI (UO-31 renal) greater than 100 µM, a TGI (UACC-257 melanoma) greater than 100 µM and a TGI (K-562 leukemia) greater than 100 µM. The TGI (ACHN renal) was greater than 100 µM, the TGI (NCI-H522 lung) was greater than 100 µM and the TGI (SNB-19 CNS) was greater than 100 µM. The TGI (SK-OV-3 ovarian) was greater than 100 µM and the TGI (HOP-92 NSCLC) was greater than 100 µM.
With `CC(C)(C)C1C=C(Sc2ccccc2)C(=O)O1` (configuration not stated) the TGI (UO-31 renal) was 92.1 µM, the TGI (UACC-257 melanoma) was greater than 100 µM and the TGI (K-562 leukemia) was greater than 100 µM. It also gave a TGI (ACHN renal) greater than 100 µM, a TGI (NCI-H522 lung) of 87.8 µM and a TGI (SNB-19 CNS) greater than 100 µM. It also gave a TGI (SK-OV-3 ovarian) greater than 100 µM and a TGI (HOP-92 NSCLC) of 75.2 µM.
In the case of `COc1ccc(C2=CC3CCC2C3)cc1` (configuration not stated), the TGI (UO-31 renal) is reported as greater than 100 µM, the TGI (UACC-257 melanoma) is reported as greater than 100 µM and the TGI (K-562 leukemia) is reported as greater than 100 µM. For the same compound, the TGI (ACHN renal) was greater than 100 µM, the TGI (NCI-H522 lung) was greater than 100 µM and the TGI (SNB-19 CNS) was greater than 100 µM. For the same compound, the TGI (SK-OV-3 ovarian) was greater than 100 µM and the TGI (HOP-92 NSCLC) was greater than 100 µM.
Compound `COc1ccc(/C=C/c2nccc3ccccc23)cc1OC` has a TGI (T-47D breast) greater than 10 µM, a TGI (UACC-257 melanoma) greater than 10 µM and a TGI (K-562 leukemia) greater than 10 µM. The TGI (ACHN renal) was greater than 10 µM, the TGI (NCI-H522 lung) was greater than 10 µM and the TGI (SNB-19 CNS) was greater than 10 µM. The TGI (SK-OV-3 ovarian) was greater than 10 µM, the TGI (PC-3 prostate) was greater than 10 µM and the TGI (HOP-92 NSCLC) was greater than 10 µM.
`NC(=O)c1ccc(I)c(N)c1` was tested, and the GI50 (UO-31 renal) was greater than 100 µM, the TGI (UO-31 renal) was greater than 100 µM and the GI50 (T-47D breast) was greater than 100 µM. For the same compound, the TGI (T-47D breast) was greater than 100 µM, the GI50 (UACC-257 melanoma) was greater than 100 µM and the TGI (UACC-257 melanoma) was greater than 100 µM. It also gave a GI50 (ACHN renal) greater than 100 µM, a TGI (ACHN renal) greater than 100 µM and a GI50 (NCI-H522 lung) greater than 100 µM. It also gave a TGI (NCI-H522 lung) greater than 100 µM, a GI50 (SNB-19 CNS) greater than 100 µM and a TGI (SNB-19 CNS) greater than 100 µM. The GI50 (SK-OV-3 ovarian) was greater than 100 µM, the TGI (SK-OV-3 ovarian) was greater than 100 µM and the GI50 (HOP-92 NSCLC) was greater than 100 µM. The TGI (HOP-92 NSCLC) was greater than 100 µM.
In the case of `C[C@@H]1OC(O)[C@@H](F)[C@H](O)[C@@H]1O` (some centres not stated), the GI50 (UO-31 renal) is reported as greater than 100 µM, the TGI (UO-31 renal) is reported as greater than 100 µM and the GI50 (T-47D breast) is reported as greater than 100 µM. The TGI (T-47D breast) was greater than 100 µM, the GI50 (UACC-257 melanoma) was greater than 100 µM and the TGI (UACC-257 melanoma) was greater than 100 µM. For the same compound, the GI50 (ACHN renal) was greater than 100 µM, the TGI (ACHN renal) was greater than 100 µM and the GI50 (NCI-H522 lung) was greater than 100 µM. The TGI (NCI-H522 lung) was greater than 100 µM, the GI50 (SNB-19 CNS) was greater than 100 µM and the TGI (SNB-19 CNS) was greater than 100 µM. The GI50 (SK-OV-3 ovarian) was greater than 100 µM, the TGI (SK-OV-3 ovarian) was greater than 100 µM and the GI50 (PC-3 prostate) was greater than 100 µM. It also gave a TGI (PC-3 prostate) greater than 100 µM, a GI50 (HOP-92 NSCLC) greater than 100 µM and a TGI (HOP-92 NSCLC) greater than 100 µM.
`CCC[CH2][Sn]([CH2]CCC)([O]C(=O)c1cccnc1SC)[O]C(=O)c1cccnc1SC` showed a GI50 (UO-31 renal) of 1.36 µM, a TGI (UO-31 renal) of 2.66 µM and a GI50 (UACC-257 melanoma) of 0.922 µM. For the same compound, the TGI (UACC-257 melanoma) was 2.14 µM, the GI50 (K-562 leukemia) was 0.0482 µM and the TGI (K-562 leukemia) was 0.372 µM. For the same compound, the GI50 (ACHN renal) was 0.878 µM, the TGI (ACHN renal) was 2.09 µM and the GI50 (NCI-H522 lung) was 0.0216 µM. For the same compound, the TGI (NCI-H522 lung) was 0.133 µM, the GI50 (SNB-19 CNS) was 1.46 µM and the TGI (SNB-19 CNS) was 2.78 µM. The GI50 (SK-OV-3 ovarian) was 2.36 µM, the TGI (SK-OV-3 ovarian) was 5.83 µM and the GI50 (HOP-92 NSCLC) was 0.602 µM. For the same compound, the TGI (HOP-92 NSCLC) was 1.93 µM.
Work on `COC(=O)C1Cc2c(n(Cc3ccccc3)c3ccccc23)C(CCC(=O)O)N1C(C)C` (configuration not stated) yielded a TGI (UO-31 renal) greater than 100 µM, a TGI (UACC-257 melanoma) greater than 100 µM and a TGI (K-562 leukemia) greater than 100 µM. The TGI (ACHN renal) was greater than 100 µM, the TGI (NCI-H522 lung) was greater than 100 µM and the TGI (SNB-19 CNS) was greater than 100 µM. For the same compound, the TGI (SK-OV-3 ovarian) was greater than 100 µM and the TGI (HOP-92 NSCLC) was greater than 100 µM.
`CC1=CC(=Nc2ccc(N(CCCl)CCCl)cc2)C=C(C)C1=O` gave a GI50 (T-47D breast) of 0.64 µM, a TGI (T-47D breast) of 3.22 µM and a GI50 (UACC-257 melanoma) of 1.49 µM. For the same compound, the TGI (UACC-257 melanoma) was 5.12 µM, the GI50 (K-562 leukemia) was 1.21 µM and the TGI (K-562 leukemia) was greater than 100 µM. It also gave a GI50 (ACHN renal) of 0.29 µM, a TGI (ACHN renal) of 1.61 µM and a GI50 (SNB-19 CNS) of 2.81 µM. It also gave a TGI (SNB-19 CNS) greater than 65.8 µM, a GI50 (SK-OV-3 ovarian) of 3.21 µM and a TGI (SK-OV-3 ovarian) of 23 µM. For the same compound, the GI50 (PC-3 prostate) was 1.48 µM, the TGI (PC-3 prostate) was 7.08 µM and the GI50 (HOP-92 NSCLC) was 0.392 µM. The TGI (HOP-92 NSCLC) was 2.06 µM.
